# Assay results: US20250115654A1, “PHARMACEUTICAL COMPOSITION OF GLP-1 RECEPTOR AND GIP RECEPTOR DUAL AGONIST, AND USE THEREOF” (FUJIAN SHENGDI PHARMACEUTICAL CO., LTD., priority 2021, published 2025)
# Like-named read-outs stand apart in the source and are kept apart here. Numbered stars: 1 amine (or outer) side, 2 acyl side, 3 side chain; on linkers, the order of the positions; unused ones are H or OH. Square brackets hold non-standard residues; d marks the D form. Side chains are listed from the residue outwards. Peptide text beside a SMILES is read from it. * marks the point of attachment. C20 diacid = O=C(O)CCCCCCCCCCCCCCCCCCC(=O)*; γGlu = O=C(O)[C@H](CCC(=O)[*:2])N[*:1]; AEEA = NCCOCCOCC(=O)O; Aib = CC(C)(N)C(=O)O
# What was measured:
# human GIPR = target: T1, human GIPR (Homo sapiens, UniProt P48546); assay: Agonist activity against GIPR, cAMP HTRF in CHO-K1 cells transiently transfected with hGIP receptor; assay type: cell-based
# T1 construct: expressed in transfected cells; host or cells: wild-type CHO-K1, transient transfection with hGIP receptor plasmid (Fugene HD)
# T1 sequence (P48546 22-466): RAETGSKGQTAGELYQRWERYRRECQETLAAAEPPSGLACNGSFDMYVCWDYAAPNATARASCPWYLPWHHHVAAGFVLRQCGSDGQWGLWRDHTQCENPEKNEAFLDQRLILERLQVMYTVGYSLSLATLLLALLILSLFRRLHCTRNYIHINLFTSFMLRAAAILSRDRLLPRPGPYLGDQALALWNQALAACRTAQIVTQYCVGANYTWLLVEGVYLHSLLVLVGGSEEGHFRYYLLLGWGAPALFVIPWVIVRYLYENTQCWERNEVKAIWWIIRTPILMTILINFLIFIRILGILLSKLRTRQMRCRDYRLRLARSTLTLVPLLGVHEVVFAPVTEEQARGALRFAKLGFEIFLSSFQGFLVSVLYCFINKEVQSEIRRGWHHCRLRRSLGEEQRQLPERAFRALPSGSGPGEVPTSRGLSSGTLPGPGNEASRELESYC
# Description: Wild-type CHO-K1 cells were collected, and the cell suspension was adjusted to an appropriate density, seeded in a 6-well plate at 2 mL/well, and placed in an incubator at 37° C. with 5% CO2 for adherence culture overnight.
# human GLP-1R = human GLP-1R (Homo sapiens, UniProt P43220); assay: Agonist activity against GLP-1R, cAMP HTRF in CHO-K1/GLP-1R/CRE-luc stable cells
# [1] = Stability of compounds in human plasma (LC-MS); assay type: in vitro ADME; settings: human, read-out: Relative content of compounds retained in plasma (%)
# Description: 5 μL of each of samples at concentrations of 20 ng/mL, 50 ng/mL, 100 ng/mL, 200 ng/mL, 500 ng/mL, 1000 ng/mL, 2000 ng/mL, 5000 ng/mL, and 10000 ng/mL was added to 45 L of human plasma. The content of the compounds in the samples was determined by the LC-MS method and a standard curve was formed. 5 μL of a 1 mg/mL polypeptide solution was added to 45 μL of human plasma. […] With the content at 0 min as the standard (100%), the relative content of the retained compounds in the samples at other time points was calculated.
# [2] = Table 6 run, read-out: Activity against human GIPR (EC50 nM)
# Chain of human GLP-1R (P43220 24-463): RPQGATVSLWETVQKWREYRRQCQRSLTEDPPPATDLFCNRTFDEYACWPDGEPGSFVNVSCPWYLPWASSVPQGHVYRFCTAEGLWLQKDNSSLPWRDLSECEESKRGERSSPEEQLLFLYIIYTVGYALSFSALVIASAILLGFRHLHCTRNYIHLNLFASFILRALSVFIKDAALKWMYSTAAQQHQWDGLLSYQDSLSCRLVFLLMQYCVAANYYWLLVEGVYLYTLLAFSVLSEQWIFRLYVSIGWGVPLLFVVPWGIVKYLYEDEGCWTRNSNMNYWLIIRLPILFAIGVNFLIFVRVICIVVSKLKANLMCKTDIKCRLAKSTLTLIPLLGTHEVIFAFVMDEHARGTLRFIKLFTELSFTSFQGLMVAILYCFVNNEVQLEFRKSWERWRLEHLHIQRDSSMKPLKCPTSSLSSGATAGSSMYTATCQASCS
smiles,measurement,setting,value
CC[C@H](C)[C@H](NC(=O)[C@H](CCCCNC(=O)COCCOCCNC(=O)COCCOCCNC(=O)CC[C@H](NC(=O)CCCCCCCCCCCCCCCCCCC(=O)O)C(=O)O)NC(=O)[C@H](CCC(=O)O)NC(=O)[C@H](CC(C)C)NC(=O)[C@H](Cc1ccc(O)cc1)NC(=O)[C@@H](NC(=O)[C@H](CO)NC(=O)[C@H](Cc1ccc(O)cc1)NC(=O)[C@H](CC(=O)O)NC(=O)[C@H](CO)NC(=O)[C@@H](NC(=O)[C@H](Cc1ccccc1)NC(=O)[C@@H](NC(=O)CNC(=O)[C@H](CCC(=O)O)NC(=O)C(C)(C)NC(=O)[C@@H](N)Cc1ccc(O)cc1)[C@@H](C)O)[C@@H](C)O)[C@@H](C)CC)C(=O)N[C@@H](C)C(=O)N[C@@H](C)C(=O)N[C@@H](CCC(N)=O)C(=O)N[C@@H](CCC(=O)O)C(=O)N[C@@H](Cc1ccccc1)C(=O)N[C@H](C(=O)N[C@@H](CC(N)=O)C(=O)N[C@@H](Cc1c[nH]c2ccccc12)C(=O)N[C@@H](CC(C)C)C(=O)N[C@H](C(=O)N[C@@H](C)C(=O)NCC(=O)NCC(=O)N1CCC[C@H]1C(=O)N[C@@H](CO)C(=O)N[C@@H](CO)C(=O)NCC(=O)N[C@@H](C)C(=O)N1CCC[C@H]1C(=O)N1CCC[C@H]1C(=O)N1CCC[C@H]1C(=O)N[C@@H](CO)C(N)=O)[C@@H](C)CC)[C@@H](C)CC [Compound 10] (H-Y[Aib]EGTFTSDYSIYLEK([AEEA-AEEA-γGlu-C20 diacid])IAAQEFINWLIAGGPSSGAPPPS-NH2),EC50,human GIPR; [2],0.056 nM
CC[C@H](C)[C@H](NC(=O)[C@H](CCCNC(=N)N)NC(=O)[C@H](CCC(=O)O)NC(=O)[C@H](CCCCNC(=O)COCCOCCNC(=O)COCCOCCNC(=O)CC[C@H](NC(=O)CCCCCCCCCCCCCCCCCCC(=O)O)C(=O)O)NC(=O)[C@H](Cc1ccc(O)cc1)NC(=O)[C@@H](NC(=O)[C@H](CO)NC(=O)[C@H](Cc1ccc(O)cc1)NC(=O)[C@H](CC(=O)O)NC(=O)[C@H](CO)NC(=O)[C@@H](NC(=O)[C@H](Cc1ccccc1)NC(=O)[C@@H](NC(=O)CNC(=O)[C@H](CCC(=O)O)NC(=O)C(C)(C)NC(=O)[C@@H](N)Cc1ccc(O)cc1)[C@@H](C)O)[C@@H](C)O)[C@@H](C)CC)C(=O)N[C@@H](C)C(=O)N[C@@H](C)C(=O)N[C@@H](CCC(N)=O)C(=O)N[C@@H](CCC(=O)O)C(=O)N[C@@H](Cc1ccccc1)C(=O)N[C@H](C(=O)N[C@@H](CC(N)=O)C(=O)N[C@@H](Cc1c[nH]c2ccccc12)C(=O)N[C@@H](CC(C)C)C(=O)N[C@H](C(=O)N[C@@H](C)C(=O)NCC(=O)NCC(=O)N1CCC[C@H]1C(=O)N[C@@H](CO)C(=O)N[C@@H](CO)C(=O)NCC(=O)N[C@@H](C)C(=O)N1CCC[C@H]1C(=O)N1CCC[C@H]1C(=O)N1CCC[C@H]1C(=O)N[C@@H](CO)C(N)=O)[C@@H](C)CC)C(C)C [Compound 13] (H-Y[Aib]EGTFTSDYSIYK([AEEA-AEEA-γGlu-C20 diacid])ERIAAQEFVNWLIAGGPSSGAPPPS-NH2),EC50,human GIPR; [2],0.13 nM
CC[C@H](C)[C@H](NC(=O)[C@H](CCCCN)NC(=O)[C@H](CCC(=O)O)NC(=O)[C@H](CCCCNC(=O)COCCOCCNC(=O)COCCOCCNC(=O)CC[C@H](NC(=O)CCCCCCCCCCCCCCCCCCC(=O)O)C(=O)O)NC(=O)[C@H](Cc1ccc(O)cc1)NC(=O)[C@@H](NC(=O)[C@H](CO)NC(=O)[C@H](Cc1ccc(O)cc1)NC(=O)[C@H](CC(=O)O)NC(=O)[C@H](CO)NC(=O)[C@@H](NC(=O)[C@H](Cc1ccccc1)NC(=O)[C@@H](NC(=O)CNC(=O)[C@H](CCC(=O)O)NC(=O)C(C)(C)NC(=O)[C@@H](N)Cc1ccc(O)cc1)[C@@H](C)O)[C@@H](C)O)[C@@H](C)CC)C(=O)N[C@@H](C)C(=O)N[C@@H](C)C(=O)N[C@@H](CCC(N)=O)C(=O)N[C@@H](CCC(=O)O)C(=O)N[C@@H](Cc1ccccc1)C(=O)N[C@H](C(=O)N[C@@H](CC(N)=O)C(=O)N[C@@H](Cc1c[nH]c2ccccc12)C(=O)N[C@@H](CC(C)C)C(=O)N[C@H](C(=O)N[C@@H](C)C(=O)NCC(=O)NCC(=O)N1CCC[C@H]1C(=O)N[C@@H](CO)C(=O)N[C@@H](CO)C(=O)NCC(=O)N[C@@H](C)C(=O)N1CCC[C@H]1C(=O)N1CCC[C@H]1C(=O)N1CCC[C@H]1C(=O)N[C@@H](CO)C(N)=O)[C@@H](C)CC)[C@@H](C)CC [Compound 14] (H-Y[Aib]EGTFTSDYSIYK([AEEA-AEEA-γGlu-C20 diacid])EKIAAQEFINWLIAGGPSSGAPPPS-NH2),EC50,human GIPR; [2],0.13 nM
same,EC50,human GLP-1R,0.013 nM
CC[C@H](C)[C@H](NC(=O)[C@H](CCCNC(=N)N)NC(=O)[C@H](CCC(=O)O)NC(=O)[C@H](CCCCNC(=O)COCCOCCNC(=O)COCCOCCNC(=O)CC[C@H](NC(=O)CCCCCCCCCCCCCCCCCCC(=O)O)C(=O)O)NC(=O)[C@H](Cc1ccc(O)cc1)NC(=O)[C@@H](NC(=O)[C@H](CO)NC(=O)[C@H](Cc1ccc(O)cc1)NC(=O)[C@H](CC(=O)O)NC(=O)[C@H](CO)NC(=O)[C@@H](NC(=O)[C@H](Cc1ccccc1)NC(=O)[C@@H](NC(=O)CNC(=O)[C@H](CCC(=O)O)NC(=O)C(C)(C)NC(=O)[C@@H](N)Cc1ccc(O)cc1)[C@@H](C)O)[C@@H](C)O)[C@@H](C)CC)C(=O)N[C@@H](C)C(=O)N[C@@H](C)C(=O)N[C@@H](CCC(N)=O)C(=O)N[C@@H](CCC(=O)O)C(=O)N[C@@H](Cc1ccccc1)C(=O)N[C@H](C(=O)N[C@@H](CC(N)=O)C(=O)N[C@@H](Cc1c[nH]c2ccccc12)C(=O)N[C@@H](CC(C)C)C(=O)N[C@@H](CC(C)C)C(=O)N[C@@H](C)C(=O)NCC(=O)NCC(=O)N1CCC[C@H]1C(=O)N[C@@H](CO)C(=O)N[C@@H](CO)C(=O)NCC(=O)N[C@@H](C)C(=O)N1CCC[C@H]1C(=O)N1CCC[C@H]1C(=O)N1CCC[C@H]1C(=O)N[C@@H](CO)C(N)=O)C(C)C [Compound 17] (H-Y[Aib]EGTFTSDYSIYK([AEEA-AEEA-γGlu-C20 diacid])ERIAAQEFVNWLLAGGPSSGAPPPS-NH2),EC50,human GIPR; [2],0.11 nM
"CC[C@H](C)[C@H](NC(=O)[C@H](CC(C)C)NC(=O)[C@H](Cc1c[nH]c2ccccc12)NC(=O)[C@H](CCC(N)=O)NC(=O)[C@@H](NC(=O)[C@H](Cc1ccccc1)NC(=O)[C@H](C)NC(=O)[C@H](CCCCNC(=O)COCCOCCNC(=O)COCCOCCNC(=O)CC[C@H](NC(=O)CCCCCCCCCCCCCCCCCCC(=O)O)C(=O)O)NC(=O)[C@H](CCC(N)=O)NC(=O)[C@H](C)NC(=O)[C@@H](NC(=O)[C@H](CCCCN)NC(=O)[C@H](CC(=O)O)NC(=O)[C@H](CC(C)C)NC(=O)C(C)(C)NC(=O)[C@@H](NC(=O)[C@H](CO)NC(=O)[C@H](Cc1ccc(O)cc1)NC(=O)[C@H](CC(=O)O)NC(=O)[C@H](CO)NC(=O)[C@@H](NC(=O)[C@H](Cc1ccccc1)NC(=O)[C@@H](NC(=O)CNC(=O)[C@H](CCC(=O)O)NC(=O)C(C)(C)NC(=O)[C@@H](N)Cc1ccc(O)cc1)[C@@H](C)O)[C@@H](C)O)[C@@H](C)CC)[C@@H](C)CC)C(C)C)C(=O)N[C@@H](C)C(=O)NCC(=O)NCC(=O)N1CCC[C@H]1C(=O)N[C@@H](CO)C(=O)N[C@@H](CO)C(=O)NCC(=O)N[C@@H](C)C(=O)N1CCC[C@H]1C(=O)N1CCC[C@H]1C(=O)N1CCC[C@H]1C(=O)N[C@@H](CO)C(N)=O [LY3298176, reference compound]",EC50,human GIPR,0.031 nM
same,"remaining at 1 h, 0.1 mg/mL",[1]; 60 min,115%
same,"remaining at 2 h, 0.1 mg/mL",[1]; 120 min,118%
same,"remaining at 4 h, 0.1 mg/mL",[1]; 240 min,113%
